These results are taken from patent publication US4585866A, “Treatment of migraine with substituted tropyl benzoate derivatives” (Merrell Dow Pharmaceuticals Inc., priority 1984, dated 1986).

Data set [1] concerns the target T1, 5-HT M-receptor (Oryctolagus cuniculus, UniProt A0A5F9C9J3).
T1 construct: determining their pA2 values in the isolated rabbit heart; from tissue; host or cells: isolated rabbit heart (receptor on the cardiac neurones)
T1 sequence (A0A5F9C9J3 1-494): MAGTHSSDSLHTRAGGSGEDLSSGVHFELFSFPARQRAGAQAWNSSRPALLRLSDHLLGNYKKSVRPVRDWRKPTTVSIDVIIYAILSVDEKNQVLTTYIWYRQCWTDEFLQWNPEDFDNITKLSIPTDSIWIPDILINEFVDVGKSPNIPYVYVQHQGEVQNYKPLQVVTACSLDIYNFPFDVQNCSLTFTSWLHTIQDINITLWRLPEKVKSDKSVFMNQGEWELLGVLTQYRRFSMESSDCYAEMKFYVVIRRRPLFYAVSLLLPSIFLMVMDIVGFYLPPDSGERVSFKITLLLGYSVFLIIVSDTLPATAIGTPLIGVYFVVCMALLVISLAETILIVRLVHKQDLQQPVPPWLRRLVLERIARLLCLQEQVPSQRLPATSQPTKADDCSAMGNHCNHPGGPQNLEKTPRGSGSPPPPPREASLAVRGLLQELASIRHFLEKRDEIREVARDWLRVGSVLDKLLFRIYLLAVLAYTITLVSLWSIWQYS
As to the kind of experiment: pA2 against 5-HT in isolated rabbit heart. The data set is classed as cell-based. The settings on record: isolated rabbit heart; negative log of molar concentration of antagonist reducing effect of twice the ED50 of 5-HT to that of the ED50; read-out: pA2 5-HT (converted). How it is done: (§1) The activity of the compounds against 5-HT can be assessed by determining their pA2 values in the isolated rabbit heart as described by J. R. Fozard et al, Eur. J. Pharmacol., 59, 195-210 (1979). In the method described, the molar concentration of antagonist which reduces the effects of twice the ED50 of 5-HT to that of the ED50 in the absence of antagonist is determined. The pA2 value is the negative logarithm of said molar concentrations.

Data set [2] concerns the target T1, 5-HT M-receptor. Conditions: reported by J. R. Fozard et al, Eur. J. Pharmacol. 1979 / 1978; cited from earlier work.
A further data set relates to 5-HT D-receptor. Conditions: at the doses used clinically for the treatment of migraine; cited from earlier work.
The subject of data set [3] is Von Bezold-Jarisch Reflex (5-HT M-receptor). Put plainly: Antagonism of the Von Bezold-Jarisch reflex evoked by 5-HT in the anaesthetized rat. The format is in vivo, rat (male Sprague-Dawley). Conditions: comparison in words, i.v. The text has this: The activity of these compounds against 5-HT can be assessed in vivo by measurement of the effect of the compound on the Von Bezold-Jarisch Reflex induced by 5-HT injected intravenously into the rat (A. S. Paintal, Physiol. Rev. 53, 159-227, 1973). The transient caridac slowing arises from an increased afferent vagus activity arising from stimulation by 5-HT of sensory afferent fibres in and around the heart (see Example 3).
Antagonism of the Von Bezold-Jarisch reflex evoked by 5-HT in the anaesthetized rat was measured for tropyl 3,5-dimethoxybenzoate (A), tropyl 3,5-dimethylbenzoate (B) and tropyl 3,5-dichlorobenzoate (C) using the following method.
Male Sprague-Dawley rats weighing 250-300 g are anaesthetized with urethane, 1.25 g/kg injected intraperitoneally and set up for recording blood pressure and heart rate as described in J. R. Fozard et al, J. Cardiovas. Pharmacol. 2, 229-245 (1980). A submaximal dose of 5-HT ([…]) is given repeatedly into the cannulated jugular vein and changes in heart rate are quantified. Antagonists are given intravenously and the doses required to just inhibit the response to 5-HT (threshold dose) or to inhibit the response to 5-HT by 50% (ED50) are determined.

The next data set in a line: LD50 in the mouse. Conditions: in vivo, mouse. The format is in vivo.
For another data set, the system named is mouse. Put plainly: LD50 in the mouse. The settings on record: as shown by LD50 values in the mouse and rat. The format is in vivo.
Another data set is described as follows: LD50 in the rat. Conditions: in vivo, iv.
In data set [4] the target is T2, rabbit heart (5-HT M receptor) (Oryctolagus cuniculus, UniProt A0A5F9C9J3).
T2 construct: RABBIT HEART; from tissue; host or cells: rabbit heart
T2 sequence (A0A5F9C9J3 1-494): T1 sequence (A0A5F9C9J3 1-494)
As to the kind of experiment: Inhibition of standard response to 5-HT, rabbit heart. The format is cell-based. Conditions: rabbit heart, agonist 5-HT; read-out: Concentration to inhibit standard response to stimulants by 50% (IC50). How it is done:
as §1
(§2) A selection of classical in vitro pharmacological test preparations (rat uterus, rat fundus, guinea-pig ileum, guinea-pig taenia caeci) were set up according to well-established procedures (see "Pharmacological Experiments on Isolated Preparations" Staff of the Department of Pharmacology, University of Edinburgh, Livingstone, Edinburgh 1970). Various spasmogens were used to elicit contraction of these tissues though mechanisms other than the 5-HT "M" receptor. The concentrations of tropyl 3,5-dimethoxybenzoate (A), tropyl 3,5-dimethylbenzoate (B) and tropyl 3,5-dichlorobenzoate (C) which reduced the effects of a submaximal dose of agonist by 50% were determined (IC50). The results are set forth in Table VI below in which the compounds are identified by the reference letters used above.

The subject of data set [5] is rat uterus. Put plainly: Inhibition of standard response to 5-HT, rat uterus. The data set is classed as cell-based. The settings on record: agonist 5-HT, read-out: Concentration to inhibit standard response to stimulants by 50% (IC50).
Source text: as §2

For data set [6], the system named is rat uterus. As to the kind of experiment: Inhibition of standard response to oxytocin, rat uterus. The data set is classed as cell-based. The settings on record: agonist oxytocin, read-out: Concentration to inhibit standard response to stimulants by 50% (IC50).
Source text: as §2

In data set [7] the test system is rat fundus. As to the kind of experiment: Inhibition of standard response to 5-HT, rat fundus. The format is cell-based. The settings on record: agonist 5-HT, read-out: Concentration to inhibit standard response to stimulants by 50% (IC50).
Source text: as §2

Data set [8] has as its system rat fundus. As to the kind of experiment: Inhibition of standard response to acetylcholine, rat fundus. The format is cell-based. The settings on record: agonist acetylcholine, read-out: Concentration to inhibit standard response to stimulants by 50% (IC50).
Source text: as §2

The test system of data set [9] is guinea-pig ileum. As to the kind of experiment: Inhibition of standard response to acetylcholine, guinea-pig ileum. The data set is classed as cell-based. Conditions: Cavia porcellus, agonist acetylcholine, read-out: Concentration to inhibit standard response to stimulants by 50% (IC50).
Source text: as §2

The test system of data set [10] is guinea-pig ileum. Put plainly: Inhibition of standard response to histamine, guinea-pig ileum. The data set is classed as cell-based. Conditions: Cavia porcellus, agonist histamine, read-out: Concentration to inhibit standard response to stimulants by 50% (IC50).
Source text: as §2

In another data set the test system is guinea-pig taenia caeci. As to the kind of experiment: Inhibition of standard response to calcium, guinea-pig taenia caeci. The data set is classed as cell-based. The settings on record: Cavia porcellus; guinea-pig taenia caeci in potassium-depolarized Tyrode solution, agonist calcium; read-out: Concentration to inhibit standard response to stimulants by 50% (IC50).
Source text: as §2
*In potassiumdepolarized Tyrode solution

Take `CN1[C@@H]2CC[C@H]1C[C@@H](OC(=O)c1ccccc1)C2` [tropylbenzoate, reference compound]: the Kb at 5-HT M-receptor [1] is 63.1 nM. Also, the “pA2 value (5-HT)” value on 5-HT M-receptor [2] is on record as 7.12.

As for `CC(C)NC[C@H](O)COc1cccc2ccccc12` (racemic) [propanolol], in the data set on 5-HT D-receptor, the “5-HT D-receptor antagonism” value is reported as 5-HT D-receptor antagonists.

In the case of `COc1ccc(C(=O)O[C@H]2C[C@H]3CC[C@@H](C2)N3C)cc1OC` [tropyl 3,4-dimethoxybenzoate, reference compound], the Kb on 5-HT M-receptor [1] was 63.1 nM.

For `CN1[C@@H]2CC[C@H]1C[C@@H](OC(=O)c1cccc(Cl)c1)C2` [tropyl 3-chlorobenzoate], the Kb on 5-HT M-receptor [1] was 2.51 nM.

`Cc1ccc(C(=O)O[C@H]2C[C@H]3CC[C@@H](C2)N3C)cc1` [tropyl 4-methylbenzoate, reference compound]: the Kb at 5-HT M-receptor [1] was 15.8 nM.

Turning to `O=C(O[C@H]1C[C@H]2CC[C@@H](C1)N2)c1cc(Cl)cc(Cl)c1` [nortropyl 3,5-dichlorobenzoate, reference compound], the Kb at 5-HT M-receptor [1] was 15.8 nM.

For `COc1cc(C(=O)O[C@H]2C[C@H]3CC[C@@H](C2)N3C)cc(OC)c1OC` [tropyl 3,4,5-trimethoxybenzoate], on 5-HT M-receptor [1], the Kb was 3.16 nM.

Turning to `CN(C)CCC=C1c2ccccc2CCc2ccccc21` [amitriptyline], in the data set with 5-HT D-receptor, the “5-HT D-receptor antagonism” value is reported as 5-HT D-receptor antagonists.

For the compound `CN1[C@@H]2CC[C@H]1C[C@@H](OC(=O)c1ccc(Cl)cc1)C2` [tropyl 4-chlorobenzoate, reference compound], the Kb on 5-HT M-receptor [1] was 100 nM.

In the case of `Cc1cccc(C(=O)O[C@H]2C[C@H]3CC[C@@H](C2)N3C)c1` [tropyl 3-methylbenzoate], the Kb on 5-HT M-receptor [1] was 6.31 nM.

Turning to `COC(=O)C1C2CCC(CC1OC(=O)c1ccccc1)N2` (single isomer, unassigned) [nor(-) cocaine], the “pA2 value (5-HT)” value at 5-HT M-receptor [2] is 7.7.

Regarding `COc1cc(OC)cc(C(=O)O[C@H]2C[C@H]3CC[C@@H](C2)N3C)c1` [tropyl 3,5-dimethoxybenzoate], the Kb on 5-HT M-receptor [1] was 3.98 nM. For the same compound, the “potency relative to metoclopramide” value in data set [3] is on record as “many times more potent than metoclopramide”. Moreover, the LD50 turned out to be 28 mg/kg in the data set “LD50 in the mouse” (ip); 29 mg/kg in the data set “LD50 in the mouse” (iv); 17 mg/kg in the data set “LD50 in the mouse” (sc); 160 mg/kg in “LD50 in the mouse” (oral); 13 mg/kg in the data set “LD50 in the rat”. Also, the toxicity in words entry with mouse is on record as “relatively non-toxic”. Moreover, the IC50 was 9.4 nM in data set [4]; over 52500 nM with rat uterus [5]; over 52500 nM with rat uterus [6]; 40000 nM in the data set on rat fundus [7]; 13100 nM in the data set with rat fundus [8]; 9560 nM in the data set on guinea-pig ileum [9]. Moreover, the figures for the IC50 in the data set with guinea-pig ileum [10] and in the data set with guinea-pig taenia caeci were 6610 nM and 36100 nM, respectively.

In the case of `CC[C@@H](CO)NC(=O)[C@@H]1C=C2c3cccc4c3c(cn4C)C[C@H]2N(C)C1` [methysergide], in the data set on 5-HT D-receptor, the “5-HT D-receptor antagonism” value is recorded as 5-HT D-receptor antagonists.

Regarding `CN(C)CCCN1c2ccccc2Sc2ccc(Cl)cc21` [chlorpromazine], the “5-HT D-receptor antagonism” value with 5-HT D-receptor is given as 5-HT D-receptor antagonists.
